Measurements as given in EP2818472A1, “Imidazo[4,5-c]pyridine and pyrrolo[3,2-c]pyridine compounds as G-protein-coupled receptor kinase 5 (GRK5) modulators” (Max-Planck-Gesellschaft zur Förderung der Wissenschaften …, priority 2013, dated 2014).

The molecules below were run on beta-TC6 cells (assay: Insulin HTRF assay (relative activity Ar) in beta-TC6 cells). Conditions: Mus musculus, Beta-TC6, 4 h, insulin HTRF, supernatant of beta-TC6 cells, incubation with test compound at 37°C for 2, 3, 4h; read-out: Ar (relative activity).
Format: cell-based, mouse
Method in brief: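 beta-TC6 cells (15k/well, seeded 24 or 48 h) washed, then exposed to compound in induction buffer (0.5% DMSO final) for 2, 3 or 4 h at 37°C.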

Row | SMILES | Emax [%]
1 | CNc1nc2cnc(Nc3ccc(NC(C)=O)cc3)cc2n1CC1CC1 [Compound 568, N-[4-[[1-(cyclopropylmethyl)-2-(methylamino)imidazo[4,5-c]pyridin-6-yl]amino]phenyl]acetamide] | 50 to 100
2 | CNc1nc2cnc(Nc3ccc(OC)cc3OC)cc2n1CC1CC1 [Compound 569, 1-(cyclopropylmethyl)-N6-(2,4-dimethoxyphenyl)-N2-methyl-imidazo[4,5-c]pyridine-2,6-diamine] | 30 to 50
3 | CNc1nc2cnc(Nc3ccc4c(c3)OCCO4)cc2n1CC1CC1 [Compound 570, 1-(cyclopropylmethyl)-N6-(2,3-dihydro-1,4-benzodioxin-6-yl)-N2-methyl-imidazo[4,5-c]pyridine-2,6-diamine] | 30 to 50
4 | CNc1nc2cnc(Nc3ccc(N4CCOCC4)cc3)cc2n1CC1CC1 [Compound 571, 1-(cyclopropylmethyl)-N2-methyl-N6-(4-morpholinophenyl)imidazo[4,5-c]pyridine-2,6-diamine] | 50 to 100
5 | CNc1nc2cnc(Nc3ccc(N4CCN(C)CC4)cc3)cc2n1CC1CC1 [Compound 572, 1-(cyclopropylmethyl)-N2-methyl-N6-[4-(4-methylpiperazin-1-yl)phenyl]imidazo[4,5-c]pyridine-2,6-diamine] | 50 to 100
6 | CNc1nc2cnc(Nc3cccc(N(C)C)c3)cc2n1CC1CC1 [Compound 573, 1-(cyclopropylmethyl)-N6-[3-(dimethylamino)phenyl]-N2-methyl-imidazo[4,5-c]pyridine-2,6-diamine] | 30 to 50
7 | CNc1nc2cnc(Nc3cccc(NC(C)=O)c3)cc2n1CC1CC1 [Compound 574, N-[3-[[1-(cyclopropylmethyl)-2-(methylamino)imidazo[4,5-c]pyridin-6-yl]amino]phenyl]acetamide] | 50 to 100
8 | CC(=O)Nc1ccc(Nc2cc3c(cn2)nc(NCc2cccc(C)c2)n3C)cc1 [Compound 576, N-[4-[[1-methyl-2-(m-tolylmethylamino)imidazo[4,5-c]pyridin-6-yl]amino]phenyl]acetamide] | 50 to 100
9 | Cc1cccc(CNc2nc3cnc(Nc4ccc5c(c4)OCCO5)cc3n2C)c1 [Compound 577, N6-(2,3-dihydro-1,4-benzodioxin-6-yl)-1-methyl-N2-(m-tolylmethyl)imidazo[4,5-c]pyridine-2,6-diamine] | 50 to 100
10 | COc1ccc(Nc2cc3c(cn2)nc(NCc2cccc(C)c2)n3C)cc1OC [Compound 578, N6-(3,4-dimethoxyphenyl)-1-methyl-N2-(m-tolylmethyl)imidazo[4,5-c]pyridine-2,6-diamine] | 50 to 100
11 | COc1ccc(-c2cc3c(cn2)nc(NCc2cccc(C)c2)n3C)cc1OC [Compound 579, 6-(3,4-dimethoxyphenyl)-1-methyl-N-(m-tolylmethyl)imidazo[4,5-c]pyridin-2-amine] | 30 to 50
12 | CC(=O)Nc1cccc(-c2cc3c(cn2)nc(NCc2cccc(C)c2)n3C)c1 [Compound 580, N-[3-[1-methyl-2-(m-tolylmethylamino)imidazo[4,5-c]pyridin-6-yl]phenyl]acetamide] | 30 to 50
13 | Cc1cccc(CNc2nc3cnc(-c4ccc(Cl)cc4)cc3n2C)c1 [Compound 581, 6-(4-chlorophenyl)-1-methyl-N-(m-tolylmethyl)imidazo[4,5-c]pyridin-2-amine] | 30 to 50
14 | Cc1cccc(CNc2nc3cnc(Nc4ccc(F)cc4)cc3n2C)c1 [Compound 582, N6-(4-fluorophenyl)-1-methyl-N2-(m-tolylmethyl)imidazo[4,5-c]pyridine-2,6-diamine] | 30 to 50
15 | Cc1cccc(CNc2nc3cnc(-c4ccoc4)cc3n2C)c1 [Compound 583, 6-(3-furyl)-1-methyl-N-(m-tolylmethyl)imidazo[4,5-c]pyridin-2-amine] | 50 to 100
16 | Cc1cccc(CNc2nc3cnc(Nc4cccc(S(C)(=O)=O)c4)cc3n2C)c1 [Compound 584, 1-methyl-N6-(3-methylsulfonylphenyl)-N2-(m-tolylmethyl)imidazo[4,5-c]pyridine-2,6-diamine] | 30 to 50
17 | Cc1cccc(CNc2nc3cnc(Nc4cccc(O)c4)cc3n2C)c1 [Compound 585, 3-[[1-methyl-2-(m-tolylmethylamino)imidazo[4,5-c]pyridin-6-yl]amino]phenol] | 50 to 100
18 | COc1ncccc1-c1cc2c(cn1)nc(NCc1cccc(C)c1)n2C [Compound 586, 6-(2-methoxy-3-pyridyl)-1-methyl-N-(m-tolylmethyl)imidazo[4,5-c]pyridin-2-amine] | 30 to 50
19 | Cc1cccc(CNc2nc3cnc(Nc4cccc(NS(C)(=O)=O)c4)cc3n2C)c1 [Compound 587, N-[3-[[1-methyl-2-(m-tolylmethylamino)imidazo[4,5-c]pyridin-6-yl]amino]phenyl]methanesulfonamide] | 50 to 100
20 | COc1cc(Nc2nc3cnc(-c4ccccc4)cc3n2C)cc(OC)c1OC [Compound 588, 1-methyl-6-phenyl-N-(3,4,5-trimethoxyphenyl)imidazo[4,5-c]pyridin-2-amine] | 30 to 50
21 | COc1cc(Nc2nc3cnc(-c4cccnc4)cc3n2C)cc(OC)c1OC [Compound 589, 1-methyl-6-(3-pyridyl)-N-(3,4,5-trimethoxyphenyl)imidazo[4,5-c]pyridin-2-amine] | 50 to 100
22 | Cn1c(Nc2cccc(C(F)(F)F)c2)nc2cnc(-c3ccc(N)nc3)cc21 [Compound 590, 6-(6-amino-3-pyridyl)-1-methyl-N-[3-(trifluoromethyl)phenyl]imidazo[4,5-c]pyridin-2-amine] | 50 to 100
23 | COc1ccc(OC)c(CCNc2nc3cnc(-c4ccncc4)cc3n2C)c1 [Compound 591, N-[2-(2,5-dimethoxyphenyl)ethyl]-1-methyl-6-(4-pyridyl)imidazo[4,5-c]pyridin-2-amine] | 30 to 50
24 | COc1ccc(OC)c(CCNc2nc3cnc(-c4ccsc4)cc3n2C)c1 [Compound 592, N-[2-(2,5-dimethoxyphenyl)ethyl]-1-methyl-6-(3-thienyl)imidazo[4,5-c]pyridin-2-amine] | 50 to 100
25 | COc1ccc(OC)c(CCNc2nc3cnc(-c4cc(OC)c(OC)c(OC)c4)cc3n2C)c1 [Compound 593, N-[2-(2,5-dimethoxyphenyl)ethyl]-1-methyl-6-(3,4,5-trimethoxyphenyl)imidazo[4,5-c]pyridin-2-amine] | 30 to 50
26 | COc1ccc(OC)c(CCNc2nc3cnc(-c4ccc(O)c(OC)c4)cc3n2C)c1 [Compound 594, 4-[2-[2-(2,5-dimethoxyphenyl)ethylamino]-1-methyl-imidazo[4,5-c]pyridin-6-yl]-2-methoxy-phenol] | 30 to 50
27 | COc1ccc(OC)c(CCNc2nc3cnc(-c4cccs4)cc3n2C)c1 [Compound 595, N-[2-(2,5-dimethoxyphenyl)ethyl]-1-methyl-6-(2-thienyl)imidazo[4,5-c]pyridin-2-amine] | 30 to 50
28 | Cn1c(NCC2CC2)nc2cnc(-c3ccsc3)cc21 [Compound 596, N-(cyclopropylmethyl)-1-methyl-6-(3-thienyl)imidazo[4,5-c]pyridin-2-amine] | 50 to 100
29 | Cn1c(NCC2CC2)nc2cnc(-c3ccc(N4CCNCC4)cc3)cc21 [Compound 597, N-(cyclopropylmethyl)-1-methyl-6-(4-piperazin-1-ylphenyl)imidazo[4,5-c]pyridin-2-amine] | 50 to 100
30 | Cn1c(NCC2CC2)nc2cnc(Nc3ccc4c(c3)OCO4)cc21 [Compound 598, N6-(1,3-benzodioxol-5-yl)-N2-(cyclopropylmethyl)-1-methyl-imidazo[4,5-c]pyridine-2,6-diamine] | 30 to 50
